In ChEMBL document CHEMBL4804283, “Stk19 inhibitors for treatment of cancer” (2020):
The source made the active and inactive calls. The calls are words filed in the database; no cut-off is given here.

What was measured:
[1] = Toxicity in C57BL/6J mouse assessed as effect on lactic dehydrogenase level at 25 mg/kg, administered twice daily for 20 days; format: organism-based; settings: in vivo, 480 h
SK-MEL-2 [2] = experiment: Antitumor activity against human SK-MEL-2 cells xenografted in nude mouse assessed as tumor growth inhibition; format: functional
[3] = molecular target: T1, Inactive serine/threonine-protein kinase 19 (Homo sapiens) (UniProt P49842); experiment: Inhibition of STK19 in human SK-MEL-2 cells expressing NRAS Q61R and wild-type BRAF at 1-3 uM assessed as MEK-ERK signaling relative to control; format: cell-based
T1 sequence (whole entry): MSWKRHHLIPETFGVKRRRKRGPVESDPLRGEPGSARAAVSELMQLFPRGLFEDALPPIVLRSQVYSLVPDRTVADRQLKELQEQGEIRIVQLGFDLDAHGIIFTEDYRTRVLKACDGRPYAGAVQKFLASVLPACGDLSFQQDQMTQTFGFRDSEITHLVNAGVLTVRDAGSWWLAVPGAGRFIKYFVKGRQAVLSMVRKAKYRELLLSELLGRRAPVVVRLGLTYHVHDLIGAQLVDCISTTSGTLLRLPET

SK-MEL-2 [4] = experiment: Growth inhibition of human SK-MEL-2 cells expressing NRAS Q61R and wild-type BRAF at 1-3 uM relative to control; format: functional, cell-based
[5] = Toxicity in C57BL/6J mouse assessed as liver histology at 25 mg/kg, administered twice daily for 20 days by H and E staining method; format: organism-based; settings: in vivo, 480 h
hTERT [6] = experiment: Inhibition of colony formation in hTERT/p53DD/CDK4 (R24C) immortal melanocytes expressing wild-type STK19 at 3 uM relative to control; format: functional; settings: Homo sapiens
[7] = molecular target: T1, Inactive serine/threonine-protein kinase 19 (Homo sapiens); experiment: Inhibition of STK19 in human WM2032 cells expressing NRAS Q61R and wild-type BRAF at 1-3 uM assessed as MEK-ERK signaling relative to control; format: cell-based
SK-MEL-2 [8] = experiment: Inhibition of G9a in nude mouse xenografted with human SK-MEL-2 cells assessed as decrease in H3K9 methylation at 25 mg/kg; format: functional, organism-based
[9] = Toxicity in nude mouse xenografted with human SK-MEL-2 cells assessed as increase in animal survival at 25 mg/kg; format: organism-based; settings: in vivo
[10] = Toxicity in C57BL/6J mouse assessed as effect on creatinine level at 25 mg/kg, administered twice daily for 20 days; format: organism-based; settings: in vivo, 480 h
[11] = molecular target: T1, Inactive serine/threonine-protein kinase 19 (Homo sapiens); experiment: Inhibition of wild-type STK19 in human primary melanocytes at 0.1-3 uM relative to control; format: cell-based
hTERT [12] = experiment: Antiproliferative activity against hTERT/p53DD/CDK4 (R24C) immortal melanocytes expressing wild-type STK19 at 3 uM relative to control; format: functional, tissue-based; settings: Homo sapiens
[13] = Toxicity in nude mouse xenografted with human SK-MEL-2 cells assessed as increase in animal survival at 50 mg/kg; format: organism-based; settings: in vivo
[14] = test system: T2, Inactive serine/threonine-protein kinase 19 (Homo sapiens), P49842 [D89N]; experiment: Inhibition of STK19 D89N mutant in human primary melanocytes at 0.1-3 uM relative to control; format: cell-based
T2 sequence (whole entry): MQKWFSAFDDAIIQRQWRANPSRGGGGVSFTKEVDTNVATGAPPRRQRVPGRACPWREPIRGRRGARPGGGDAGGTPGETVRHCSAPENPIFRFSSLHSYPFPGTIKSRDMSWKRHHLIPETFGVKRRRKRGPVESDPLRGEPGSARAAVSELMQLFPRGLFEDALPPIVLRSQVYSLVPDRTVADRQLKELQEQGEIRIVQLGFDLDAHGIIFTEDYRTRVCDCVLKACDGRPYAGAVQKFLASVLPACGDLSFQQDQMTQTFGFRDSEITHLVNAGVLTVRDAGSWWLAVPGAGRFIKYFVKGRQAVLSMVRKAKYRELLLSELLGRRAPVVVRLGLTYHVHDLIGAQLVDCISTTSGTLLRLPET

SK-MEL-2 [15] = experiment: Antitumor activity against human SK-MEL-2 cells xenografted in nude mouse assessed as induction of apoptosis at 25 mg/kg, administered for 21 days; format: functional, organism-based
[16] = Toxicity in C57BL/6J mouse assessed as effect on total protein level at 25 mg/kg, administered twice daily for 20 days; format: organism-based; settings: in vivo, 480 h
SK-MEL-2 [17] = experiment: Induction of apoptosis in human SK-MEL-2 cells expressing NRAS Q61R and wild-type BRAF at 1-3 uM relative to control; format: functional, cell-based
[18] = molecular target: T1, Inactive serine/threonine-protein kinase 19 (Homo sapiens); experiment: Inhibition of STK19 in human SK-MEL-2 cells expressing NRAS Q61R and wild-type BRAF at 300 nM assessed as NRAS phosphorylation relative to control; format: cell-based
WM2032 [19] = experiment: Growth inhibition of human WM2032 cells expressing NRAS Q61R and wild-type BRAF at 1-3 uM relative to control; format: functional, cell-based
[20] = Toxicity in C57BL/6J mouse assessed as kidney histology at 25 mg/kg, administered twice daily for 20 days by H and E staining method; format: organism-based; settings: in vivo, 480 h
WM2032 [21] = experiment: Induction of apoptosis in human WM2032 cells expressing NRAS Q61R and wild-type BRAF at 1-3 uM relative to control; format: functional, cell-based
[22] = Toxicity in C57BL/6J mouse assessed as effect on animal body weight at 25 mg/kg, administered twice daily for 20 days; format: organism-based; settings: in vivo, 480 h
SK-MEL-2 [23] = experiment: Inhibition of STK19 in nude mouse xenografted with human SK-MEL-2 cells assessed as decrease in NRAS phosphorylation at 50 mg/kg; format: functional, organism-based
UACC-62 = experiment: Growth inhibition of human UACC62 cells expressing wild-type NRAS and BRAF V600E mutant at 1-3 uM relative to control; format: functional, cell-based
[24] = molecular target: T1, Inactive serine/threonine-protein kinase 19 (Homo sapiens); experiment: Inhibition of STK19 in human A375 cells expressing wild-type NRAS and BRAF V600E mutant at 1-3 uM assessed as MEK-ERK signaling relative to control; format: cell-based; settings: A-375
[25] = molecular target: T1, Inactive serine/threonine-protein kinase 19 (Homo sapiens); experiment: Inhibition of STK19 in human UACC62 cells expressing wild-type NRAS and BRAF V600E mutant at 1-3 uM assessed as PI3K signaling relative to control; format: cell-based; settings: UACC-62
[26] = Toxicity in C57BL/6J mouse assessed as effect on albumin level at 25 mg/kg, administered twice daily for 20 days; format: organism-based; settings: in vivo, 480 h
[27] = molecular target: T1, Inactive serine/threonine-protein kinase 19 (Homo sapiens); experiment: Inhibition of STK19 in human SK-MEL-2 cells expressing NRAS Q61R and wild-type BRAF at 1-3 uM assessed as PI3K signaling relative to control; format: cell-based
[28] = Toxicity in C57BL/6J mouse assessed as effect on phosphorous level at 25 mg/kg, administered twice daily for 20 days; format: organism-based; settings: in vivo, 480 h
hTERT [29] = experiment: Antitumor activity against hTERT/p53DD/CDK4 (R24C) immortal melanocytes expressing wild-type STK19 xenografted in nude mouse assessed as reduction in tumor formation; format: functional; settings: Homo sapiens
[30] = molecular target: T1, Inactive serine/threonine-protein kinase 19 (Homo sapiens); experiment: Inhibition of recombinant human STK19 assessed as NRAS phosphorylation at 1-3 uM relative to control
SK-MEL-2 [31] = experiment: Antitumor activity against human SK-MEL-2 cells xenografted in nude mouse assessed as inhibition of cancer cell proliferation at 25 mg/kg, administered for 21 days; format: functional, organism-based
[32] = molecular target: T1, Inactive serine/threonine-protein kinase 19 (Homo sapiens); experiment: Inhibition of STK19 in human SK-MEL-2 cells expressing NRAS Q61R and wild-type BRAF at 300 nM assessed as H3K9 methylation relative to control; format: cell-based

COc1cc2nc(NC3CC3)nc(NC3CCN(C(C)C)CC3)c2cc1OC.O=C(O)C(F)(F)F
Activity [1]: Non-Toxic
TGI (SK-MEL-2 [2]): Dose-Dependent Effect
inhibition [3]: Active
Activity (SK-MEL-2 [4]): Active
Activity [5]: Non-Toxic
Activity (hTERT [6]): Active
inhibition [7]: Active
inhibition (SK-MEL-2 [8]): inactive
Activity [9]: Non-Toxic
Activity [10]: Non-Toxic
inhibition [11]: Active
Activity (hTERT [12]): Active
Activity [13]: Non-Toxic
inhibition [14]: Active
Activity (SK-MEL-2 [15]): Active
Activity [16]: Non-Toxic
Activity (SK-MEL-2 [17]): Active
inhibition [18]: Active
Activity (WM2032 [19]): Active
Activity [20]: Non-Toxic
Activity (WM2032 [21]): Active
Activity [22]: Non-Toxic
inhibition (SK-MEL-2 [23]): Active
Activity (UACC-62): inactive
inhibition [24]: inactive
inhibition [25]: inactive
Activity [26]: Non-Toxic
inhibition [27]: Active
Activity [28]: Non-Toxic
Activity (hTERT [29]): Active
Activity [30]: Active
Activity (SK-MEL-2 [31]): Active
inhibition [32]: inactive
